Calls of active or inactive are those of the source. How the calls were made is not given here.
Tested on: CCRIS mutagenicity, Ames/micronucleus/aberration tests
Experiment: CCRIS mutagenicity studies
[1] = Test System: AMES SALMONELLA TYPHIMURIUM, Strain/Indicator: TA98, Metabolic Activation: NONE, Method: STANDARD PLATE
[2] = Test System: AMES SALMONELLA TYPHIMURIUM, Strain/Indicator: TA100, Metabolic Activation: NONE, Method: STANDARD PLATE
[3] = Test System: AMES SALMONELLA TYPHIMURIUM, Strain/Indicator: TA1537, Metabolic Activation: NONE, Method: STANDARD PLATE

With `CCC(C)(C)OC` the mutagenic call [1] was “inactive; negative”, the mutagenic call (Test System: AMES SALMONELLA TYPHIMURIUM, Strain/Indicator: TA98, Metabolic Activation: RAT, LIVER, S-9, AROCLOR 1254, Method: STANDARD PLATE) was “inactive; negative” and the mutagenic call [2] was “inactive; negative”. For the same molecule, the mutagenic call (Test System: AMES SALMONELLA TYPHIMURIUM, Strain/Indicator: TA100, Metabolic Activation: RAT, LIVER, S-9, AROCLOR 1254, Method: STANDARD PLATE) was “inactive; negative”, the mutagenic call (Test System: AMES SALMONELLA TYPHIMURIUM, Strain/Indicator: TA1535, Metabolic Activation: NONE, Method: STANDARD PLATE) was “inactive; negative” and the mutagenic call (Test System: AMES SALMONELLA TYPHIMURIUM, Strain/Indicator: TA1535, Metabolic Activation: RAT, LIVER, S-9, AROCLOR 1254, Method: STANDARD PLATE) was “inactive; negative”. For the same molecule, the mutagenic call [3] was “inactive; negative”, the mutagenic call (Test System: AMES SALMONELLA TYPHIMURIUM, Strain/Indicator: TA1537, Metabolic Activation: RAT, LIVER, S-9, AROCLOR 1254, Method: STANDARD PLATE) was “inactive; negative” and the mutagenic call (Test System: AMES SALMONELLA TYPHIMURIUM, Strain/Indicator: TA1538, Metabolic Activation: NONE, Method: STANDARD PLATE) was “inactive; negative”. The mutagenic call (Test System: AMES SALMONELLA TYPHIMURIUM, Strain/Indicator: TA1538, Metabolic Activation: RAT, LIVER, S-9, AROCLOR 1254, Method: STANDARD PLATE) was “inactive; negative”.
In the case of `[N-]=[N+]=NC[C@@H](O)c1ccccc1`, the mutagenic call (Test System: AMES SALMONELLA TYPHIMURIUM, Strain/Indicator: TA100, Metabolic Activation: RAT, LIVER, S-9, PCB, Method: PREINCUBATION) is reported as “active; positive”.
For `COC(COC(N)=O)C1=C(N2CC2)C(=O)C(C)=C(N2CC2)C1=O` (configuration not stated), the mutagenic call [1] was “active; positive”, the mutagenic call [2] was “active; positive” and the mutagenic call [3] was “active; positive”. For the same molecule, the mutagenic call (Test System: CHINESE HAMSTER V-79, Strain/Indicator: V-79/6-THIOGUANINE, Metabolic Activation: NONE, Method: FLASK ASSAY) was “active; positive” and the mutagenic call (Test System: E. COLI, Strain/Indicator: WP2 (HCR), Metabolic Activation: NONE, Method: STANDARD PLATE) was “active; positive”.
For `CCCCN(CCO)N=O`, the mutagenic call (Test System: AMES SALMONELLA TYPHIMURIUM, Strain/Indicator: TA1535, Metabolic Activation: RAT, LIVER, S-9, KC500 OR PHENOBARBITAL, Method: LIQUID SUSPENSION) was “active; positive”.

— PubChem BioAssay AID1259407 (Chemical Carcinogenesis Research Information System (CCRIS), 2018)
